Test results from the supplement of paper PMC5770543.
± gives the standard deviation.

What was measured:
[1] = tested on: Plasmodium falciparum 3D7; experiment: % inhibition of schizont-to-ring transition vs DMSO; higher = more inhibition
Procedure, shortened: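 Schizont-to-ring transition inhibition compares new ring formation with that in vehicle controls. Synchronised P. falciparum schizonts (about 40–42 hours post-invasion, 1% parasitemia, 2.5% hematocrit, AlbuMAX-supplemented RPMI) were exposed to 1, 3 or 10 µM compound, after which rings were counted by Hoechst 33342 flow cytometry across three experiments.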

[2] = tested on: Toxoplasma gondii RH tachyzoites; experiment: % growth inhibition vs DMSO (48 h luciferase); higher = more inhibition; conditions: 10 µM
[3] = molecular target: Toxoplasma gondii RH tachyzoites; experiment: EC50 growth inhibition (48 h luciferase)
[4] = tested on: Plasmodium falciparum 3D7; experiment: EC50 growth inhibition (60 h, SYBR Green); conditions: stage: ring-stage start
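Throughout, for % growth inhibition vs DMSO (48 h luciferase): tested in triplicate wells of 96-well plates on confluent HFF monolayers, with 1% DMSO wells as negative control in four replicates.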

SMILES | % inhibition of schizont-to-ring transition ([1]; 1 µM) [%] | % inhibition of schizont-to-ring transition ([1]; 3 µM) [%] | % inhibition of schizont-to-ring transition ([1]; 10 µM) [%] | % growth inhibition [2] [%] | EC50 growth inhibition [3] [nM] | EC50 growth inhibition [4] [nM]
CC(Oc1ccc(NC(=O)c2cccs2)cc1)C(=O)c1ccc(Cl)cc1 (stereo not given) | 17.7 | 30.4 | 47.3 | 98.06 ± 0.7 | 257 | 462
O=C(Cc1ccccc1)NC(c1ccc(Cl)cc1)c1c(O)ccc2ccccc12 (stereo not given) | 0.685 | 26.1 | 67.8 | 100.2 ± 0.43 | 1020 | 1880
O=c1nc(C=Cc2ccc(Br)cc2)oc2ccccc12 | 15.3 | 24.2 | 54 | 99.06 ± 0.14 | 116 | 1770
CN(C)CCCNc1c2ccccc2nc2ccccc12 | 28.1 | 37.7 | 40.7 | 100.3 ± 0.38 | 1480 | 92.8
CSC1=NC(=Nc2c(C)cccc2C)C2(CCC(C(C)(C)C)CC2)N1c1ccc(Cl)cc1 (stereo not given) | 12.4 | 26.3 | 49.9 | 99.94 ± 0.22 | 775 | 869
Clc1cc(Br)ccc1-c1ccc(CNCC2CCNCC2)o1 | 46 | 50.9 | 74.4 | 99.53 ± 0.77 | 207 | 763
O=C1c2ccc3c4c(ccc(c24)C(=O)N1CCCCO)C(=O)N(CCCCO)C3=O | 9.23 | 16.9 | 64.2 | 99.55 ± 0.29 | 421 | 4810
CCCCCCc1cc(O)c2c3c(c(=O)oc2c1)CCC(C)C3 (stereo not given) | 18.6 | 34.9 | 52.4 | 99.37 ± 0.72 | 471 | 3410
CCCCNc1nc(NC(C)(C)C)nc(NC(C)(C)C)n1 | 12.2 | 25.9 | 66.4 | 93.8 ± 2.5 | 603 | 2760
COCCN(C(=O)Cc1cccs1)C(C(=O)NCc1ccc(OC)cc1)c1ccc(C(C)C)cc1 (stereo not given) | 10.9 | 13.7 | 21.6 | 91.5 ± 3.5 | 2420 | 935
OC1=C2C(=Nc3ccccc3SC2c2ccc(Br)cc2)c2ccccc21 (stereo not given) | 19.5 | 33.4 | 45.5 | 99.19 ± 0.75 | 803 | 588
CC(C)(C)C(=O)Nc1ccc(C(=O)Nc2cccc(-c3nc4ccccc4[nH]3)c2)cc1 | 22.8 | 32.4 | 56.2 | 88.4 ± 1.2 | 2080 | 1820
CN(C)c1ccc(C=Cc2nc(=O)c3ccccc3o2)cc1 | 44.1 | 60.6 | 70.1 | 99.12 ± 0.036 | 264 | 522
CCOc1ccc(Nc2c3ccccc3nc3ccccc23)cc1 | 45.1 | 58.5 | 68.8 | 100.1 ± 0.26 | 884 | 529
CCN(CC)CCCNc1nc(-c2ccc(Cl)cc2)nc2ccccc12 | 44.9 | 45.1 | 58.3 | 80.8 ± 4.8 | 122 | 3520
